Assay results: patent US12121596B2, “Near infrared fluorescent dyes, formulations and related methods” (Washington University, priority 2019, dated 2024)
Positions of bridges follow the written chain, without caps; N, C: chain ends. Non-standard residues stand in square brackets, D forms with d. Residues, ends and D or L forms follow the SMILES beside them. Primed or numbered codes have the meaning given here. *: point of attachment. X1 = CC1(C)C(/C=C/C=C/C=C/C=C2/N(CCC(=O)*)c3ccc4ccccc4c3C2(C)C)=[N+](CCC(=O)[O-])c2ccc3ccccc3c21; Cypate′ = not defined here

How the values were obtained:
[1] = tested on: lung (A549), breast (MDA-MB-231 and 4T1), and myeloid leukemia (HL60) cell lines; experiment: Cellular uptake in cancer cell lines, live-cell imaging; format: cell-based; conditions: A549, MDA-MB-231, 4T1, HL60
Protocol: In general, cultured cancer cells were grown and incubated with the indicated amount of probe in Lab-Tek 8-chambered slides for the indicated time durations. Cells were washed with PBS at selected time points and underwent conventional slide preparation, ICC if indicated, and viewing under epifluorescence or confocal. For live-cell imaging of LS301, internalization at 37° C. in human dermal fibroblasts (Coriell Cell Technologies) and tumor cells including 4T1luc, MDA-MB-231, 5TGM, A549, and HL60 (ATCC) cells were cultured in appropriate media supplemented with 10% […] and penicillin/streptomycin and incubated at 37° C. in 5% CO2 incubator. The cells were grown on Lab-Tek 8-chamber slides (Nunc Inc. Rochester, NY) in the culture medium overnight before the experiment. The compounds were dissolved in 20% DMSO in […] PBS (pH 7.4) (Sigma, St. Louis, MO) for stocking solution and mixed with culture medium to reach the final concentration. Cells were incubated with 1 μM compounds in chamber slides at different time points at 37° C. After LS301 treatment, the culture media was removed and followed by adding culture media containing SYTO 13 nuclear dye from (Thermo Fisher Scientific, Waltham, MA) for 45 minutes at 37° C. For assessing cellular colocalization of LS301 with lipid rafts, the Vybrant AlexaFluor 488 Lipid Raft Labeling Kit (Thermo Fisher Scientific, Waltham, MA, USA) was used per the manufacturer's instructions. […]. LS301 and AlexaFluor 488 fluorescence were imaged using the cypate filter set (Ex/Em 750-800 nm/818-873 nm) and fluorescein isothiocyanate (FITC) filter set (Ex/Em 460-500/510-560 nm), respectively.

[2] = tested on: breast cancer patient-derived xenograft; experiment: In vivo NIR imaging of tumor retention; set-up: species or system mice; conditions: for tumor retention: control experiments, patient-derived xenograft
Protocol: To establish the various tumor models, nude, Balb/c, or C57BL6 mice were injected with 10^5-10^7 tumor cells subcutaneously on unilateral or bilateral flanks. In some cases, spontaneous tumor models were used. Animals injected subcutaneously with saline served as sham tumor controls. For near-infrared imaging, 100 μL volumes of 60 μM LS301 or cypate in PBS were injected intravenously by lateral tail vein, and animals were imaged using a Pearl Small Animal Imager (LI-COR Biotechnology, Lincoln, NE, USA) at the indicated time points. In some experiments, probes were formulated in 1% albumin in PBS. Animals were shaved using commercially available hair removal equipment and products before imaging. For experiments involving further tissue analysis, animals were anesthetized with isoflurane and euthanized by cervical dislocation under anesthesia. Organs were harvested by surgical dissection. For quantitative organ biodistribution studies, individual regions of interest were drawn around each organ of interest, and fluorescence was quantified using the Pearl Small Animal Imager software.

heart = conditions: in vivo
diverse tumors = experiment: LS838 fluorescence and tumor retention
4T1 luc/GFP cells = experiment: In vitro blocking of LS301 binding and internalization; format: cell-based, murine
Protocol: For in vitro blocking studies of LS301, 4T1 luc/GFP cells were treated for 24 h with LS301 alone, blocking peptide LCKLSL plus LS301, scrambled blocking peptide LGKLSL plus LS301, or unlabeled LS301 analog LS637 plus LS301. Cells were prepared for confocal microscopy.

CC1(C)C(/C=C/C=C/C=C/C=C2/N(CCC(=O)O)c3ccc4ccccc4c3C2(C)C)=[N+](CCC(=O)[O-])c2ccc3ccccc3c21 [Cypate]
retention in cell lines [1]: only transient retention
tumor retention [2]: not retained
tumor retention with or without albumin formulation ([2]; in vivo): did not retain

COc1cccc2c1C(=O)c1c(O)c3c(c(O)c1C2=O)C[C@@](O)(C(=O)CO)C[C@@H]3O[C@H]1C[C@H](NC(=O)CC[N+]2=C(/C=C/C=C/C=C/C=C3/N(CCC(=O)N[C@@H]4CSSC[C@@H](C(=O)N[C@@H](CCCCN)C(=O)O)NC(=O)[C@@H]5CCCN5C(=O)[C@H](CO)NC(=O)[C@H](CC(=O)O)NC(=O)[C@H](CCCNC(=N)N)NC(=O)CNC4=O)c4ccc5ccccc5c4C3(C)C)C(C)(C)c3c2ccc2ccccc32)[C@H](O)[C@H](C)O1 [LS766, doxorubicin-cypate-cyclic(DCys-Gly-Arg-Asp-Ser-Pro-Cys)-Lys-OH]
accumulation in the heart (heart): does not accumulate in the heart

CC1(C)C(/C=C/C=C/C=C/C=C2/N(CCC(=O)N[C@@H]3CSSC[C@@H](C(=O)N[C@@H](Cc4ccc(O)cc4)C(=O)O)NC(=O)[C@@H]4CCCN4C(=O)[C@H](CO)NC(=O)[C@H](CC(=O)O)NC(=O)[C@H](CCCNC(=N)N)NC(=O)CNC3=O)c3ccc4ccccc4c3C2(C)C)=[N+](CCC(=O)[O-])c2ccc3ccccc3c21 [LS838, cypate-Cyclo(Cys-Gly-Arg-Asp-Ser-Pro-Cys)-Tyr-OH] (X1-[dC]GRDSPCY-OH; disulfide 1-7)
retention in tumors (diverse tumors): selectively remains in diverse tumors without significant loss of fluorescence over time

Cypate-cyclo(Cys-Arg-Gly-Asp-Ser-Pro-Cys)-Lys-OH ({Cypate′}-CRGDSPCK-OH; disulfide 1-7) [scrambled LS301 peptide analog]
tumor retention [2]: not retained

LCKLSL
effect on binding and internalization of LS301 in cells (4T1 luc/GFP cells): inhibited the binding and internalization of LS301
